In data set [1] the test system is SH-SY5Y cells. In words: Neuroprotection in cellular L-BMAA model (MTT cell viability). The conditions noted are these: L-BMAA 10 mM, inhibitors 10 μM, 24 h. The data set is classed as cell-based. The method, then:
SH-SY5Y cells on a 96 well plate ere incubated with L-BMAA (10 mM) with or without inhibitors (10 μM). A control experiment was set at the same time without L-BMAA or inhibitors. After 24 h a MTT was performed to determine cell viability using known procedures in the literature. Experiment was performed in triplicate.
Mechanistically and structurally diverse GSK-3 inhibitors were tested in a cellular model of L-BMAA to study whether GSK-3 inhibition was implicated in neuroprotection at L-BMAA damage, using a forward chemical genetic approach. […] Cells were incubated with L-BMAA together with or without inhibitors for 24 h and cell viability was determined.

Data set [2] concerns the target T1, Human recombinant GSK-3β (Homo sapiens, UniProt P49841).
T1 construct: purchased Millipore (Millipore Iberica S.A.U.)
As to conditions: cited from earlier work.

Data set [3] concerns male rats, Wistar strain. In words: Neurological evaluation in L-BMAA motor neuron disease model.
Protocol: Assays were carried out using male rats of Rattus norvegicus, albino variety, Wistar strain, that were supplied by Harlan Interfauna Ibérica S.A. (Barcelona, Spain). Animals were kept at constant temperature (21 ± 1°C) on a reversed light/dark cycle with diets and water ad libitum (A04 commercial rodent diet, Panlab, Barcelona, Spain). […] Animal’s health was monitored by weight control. […] Animals were sacrificed at the established time point under general anaesthesia with isoflurane (ISOFLO®, Abbott Laboratories, Abbott Park, IL, USA).
At weaning time (postnatal day 21) animals, with a weight between 45 and 55 g, were intraperitoneally (i.p.) injected with 300 mg/kg of L-BMAA (L-BMAA hydrochloride, Sigma-Aldrich, Ref. B107), during 5 consecutive days. The injected solution was composed by 50 mg of L-BMAA dissolved in 500 μl of PBS (0.1 mg / μl).
VP2.51 was dissolved in a stock solution of DMSO (dimethyl sulfoxide, Sigma) at 100 mg/mL. This stock was used to prepare a final solution of 1 mg/mL in PBS with 5% DMSO and 5% Tween® 80 (Sigma). Rats were injected i.p. 2.5 mg/Kg beginning at two different times: on the first day after treatment with L-BMAA (PT1) and on day post-treatment 30 (PT30). Injection treatment was performed for 15 consecutive days.
In summary, 6 different groups of 12 animals each were used: Control (only PBS injected), L-BMAA, L-BMAA+VP2.51 PT1, VP2.51 PT1, L-BMAA+VP2.51 PT30, VP2.51 PT30. Weight monitoring was performed every day during 100 days. After this time the animals were sacrificed.
The neurological tests were carried out blindly as described by de Munck et al [13], once a week during 100 days. Briefly, the neurological assess was carried out with three different tests: ambulation, tail suspension test and strength test. […] In the tail suspension test, the rat was suspended by the tail at 10 cm over the surface. The ability to keep the hind limbs in the normal neutral position adopted by rodents in such situation, i.e., describing a “T” was evaluated, together with the stiffness of the limbs and the inter-limb coordination during kicking. The strength test and was carried out setting down the rats on a flat surface, both forelegs and hind limbs on it, while pulling the tail softly to the opposite direction of animal usual move course. The ability the rats had to drag and offer resistance, assessing their faculty to kept hind limbs under the body without spreading their legs away from it was observed. The neurological evaluation was established in a scale comprised between 0 and 10, where 0 is the evaluation given to animals which are not symptomatic, control animals, and 10 belongs to a state of total functional loss of the hindlimbs and postural control.
The test system of data set [4] is LC3-II and P-mTOR. In words: Analysis of LC3-II and P-mTOR by western-blot (autophagy) in motor cortex and lumbar spinal cord. In kind it is in vivo, Rattus norvegicus. The method, then:
The entire brain and the lumbar spinal cord were rapidly removed and stored at -80°C.
To analyse LC3-II and P-mTOR by western-blot, 100 mg of motor cortex and lumbar spinal cord of each animal were homogenized in a RIPA buffer: 50 mM Tris–HCl pH 7.4, 50 mM NaCl, Nonidet P-40 1%, 1 mM EDTA, 1 mM PMSF, 1 mg/mL aprotinin, […] leupeptin, 1 mg/mL pepstatin, at a rate of […] of tissue. The mixture was sonicated for 2 min with 2 s pulses of sonication and 2 s off at amplitude of 40%. Once the samples were homogenized, the evaluation and protein electrophoresis was performed. The protocol was adapted from Zhang et al as described in Muñoz-Sáez et al.
Before the electrophoresis, the protein concentrations of all samples were determined by Bradford assay (Sigma–Aldrich Inc., St. Louis, MO, USA; Bradford, 1976).
Electrophoresis for protein separation was performed by SDS-PAGE. In all cases, the concentrating gel contained 6% polyacrylamide. Regarding LC3-II, the percentage of polyacrylamide was 12% for the separating gel and for P-mTOR an 8% polyacrylamide separating gel was used. Subsequently, proteins from the gels were transferred to a nitrocellulose membrane (AmershamTM HybondTM–ECL) in a wet system at 10 V o/n and 4°C. Membranes were incubated with following primary antibodies: a rabbit polyclonal anti-tubulin β-III (Novus Biologicals, Littleton, CO, USA), a rabbit polyclonal anti-LC3-II (Novus Biologicals, Littleton, CO, USA) and rabbit polyclonal anti-mTOR (Phospho-Ser2448) (Novus Biologicals, Littleton, CO, USA). As a secondary antibody, we applied Donkey anti-rabbit IgG-Fc Horseradish Peroxidase (HRP) (Bethyl Laboratories, Montgomery, TX, USA). All the antibodies were used according to the manufacturers’ specifications. Proteins were detected by enhanced chemiluminescence. Digital images were acquired using a Fujifilm Intelligent Darkbox II (Fuji Systems USA, Stamford, CT) and the image processing for quantification was conducted with free image processing software Image J.

Data set [5] in a line: Weight progression of treated rats. The data set is classed as in vivo, Rattus norvegicus. The conditions noted are these: alone or co-administered, VP2.51 2.5 mg/Kg i.p. 15 days, L-BMAA 300 mg/kg i.p. 5 days, 100 days. From the text:
After this time the animals were sacrificed.

Data set [6] in a line: In vitro parallel artificial membrane permeability assay (PAMPA-BBB). In kind it is in vitro ADME, porcine. As to conditions: for Pe: PBS:DMSO (95:5), 4 h at 25°C, mean ± SD of 3 independent experiments. As for the experimental part: Prediction of the brain penetration was evaluated using a parallel artificial membrane permeability assay (PAMPA). Ten commercial drugs, phosphate buffer saline solution at pH 7.4 (PBS), DMSO and dodecane were purchased from Sigma, Across organics, Aldrich and Fluka. […] Filter PDVF membrane units (diameter 30 mm, pore size 0.45 μm) from Symta were used to filter the samples. A 96-well plate UV reader (Thermoscientific, Multiskan spectrum) was used for the UV measurements. Test compounds were dissolved in DMSO (250 μL). 25 μL of this compound stock solution was taken and 225 μL of DMSO and 4750 μL of PBS pH 7.4 buffer were added to reach 5% of DMSO concentration in the experiment. These solutions were filtered. The acceptor 96-well microplate was filled with 180 μL of PBS:DMSO (95:5). The donor 96-well plate was coated with 4 μL of porcine brain lipid in dodecane (20 mg mL^-1) and after 5 minutes, 180 μL of each compound solution was added. […] Then the donor plate was carefully put on the acceptor plate to form a “sandwich”, which was left undisturbed for 4 h at 25°C. During this time the compounds diffused from the donor plate through the brain lipid membrane into the acceptor plate. After incubation, the donor plate was removed. The concentration of VP2.51 and commercial drugs in the acceptor and the donor wells was determined by UV plate reader. Every sample was analyzed at three to five wavelengths, in 3 wells and in three independent runs. […] Validation was made comparing the reported permeabilities values of commercial drugs with the experimental data obtained employing this methodology.
Finally, the ability to cross the blood-brain barrier (BBB) was determined. […] VP2.51 permeability through the BBB was evaluated by a parallel artificial membrane permeability assay (PAMPA) using porcine brain membrane lipid and ten commercial drugs following the methodology described by Di et al.
A general note: PAMPA measures passive passage across an artificial lipid membrane.

In data set [7] the target is T1, Human recombinant GSK-3β. In words: Inhibition of GSK-3 (Kinase-Glo luminescent assay; ADP-Glo for kinetics). The data set is classed as biochemical. As for the experimental part:
Human recombinant GSK-3β was purchased from Millipore (Millipore Iberica S.A.U.). The prephosphorylated polypeptide substrate was purchased from Millipore (Millipore Iberica S.A.U.). Kinase-Glo Luminescent Kinase Assay was obtained from Promega (Promega Biotech Ibérica, SL). ATP and all other reagents were from Sigma-Aldrich (St. Louis, MO). Assay buffer contained 50 mM HEPES (pH 7.5), 1 mM EDTA, 1 mM EGTA, and 15 mM magnesium acetate.
The method of Baki et al was followed to analyse the inhibition of GSK-3β. Kinase-Glo assays were performed in assay buffer using black 96-well plates. […] After 30 min incubation at 30°C the enzymatic reaction was stopped with 40 μl of Kinase-Glo reagent. Glo-type luminescence was recorded after 10 min using a FLUOstar Optima (BMG Labtechnologies GmbH, Offenburg, Germany) multimode reader. The activity is proportional to the difference of the total and consumed ATP. The inhibitory activities were calculated on the basis of maximal activities measured in the absence of inhibitor. […] To investigate the inhibitory mechanism of VP2.51 on GSK-3β, a kinetic study varying both ATP (from 1 to 50 μM) and VP.251 (from 0.5 to 1 μM) concentrations were performed using the ADP-Glo Kinase Assay.
To study the type of enzymatic inhibition for the compounds, measurements after several times of incubation of the enzyme with the inhibitor VP2.51 were performed.
Background: Kinase-Glo measures the ATP left after a reaction by luminescence.

Data set [8] relates to cytochromes P450 family. Also on record: method as in earlier work. The conditions noted are these: cited from earlier work.
Data set [9] concerns panel of fifty different human kinases. The conditions noted are these: fixed concentration 10 μM. As for the experimental part:
Fig 1 Biological activity of VP2.51 on GSK-3 and other protein kinases. […] B) Kinetic GSK-3 inhibition data determined for VP2.51. ATP concentrations in the reaction mixture varied from 1 to 50 μM. […] Each point is the mean of two different experiments, each one analyzed in duplicate. C) Kinase profiling of VP2.51 on human recombinant kinases. The percentage (%) of kinase activity after the treatment with a fixed concentration (10 μM) of the compound is shown.

The target of data set [10] is casein kinase-1δ (CK-1δ) (Homo sapiens, UniProt P48730). In words: CK-1δ inhibition following a described protocol. The data set is classed as biochemical.
casein kinase-1δ (CK-1δ), sequence (P48730 whole entry): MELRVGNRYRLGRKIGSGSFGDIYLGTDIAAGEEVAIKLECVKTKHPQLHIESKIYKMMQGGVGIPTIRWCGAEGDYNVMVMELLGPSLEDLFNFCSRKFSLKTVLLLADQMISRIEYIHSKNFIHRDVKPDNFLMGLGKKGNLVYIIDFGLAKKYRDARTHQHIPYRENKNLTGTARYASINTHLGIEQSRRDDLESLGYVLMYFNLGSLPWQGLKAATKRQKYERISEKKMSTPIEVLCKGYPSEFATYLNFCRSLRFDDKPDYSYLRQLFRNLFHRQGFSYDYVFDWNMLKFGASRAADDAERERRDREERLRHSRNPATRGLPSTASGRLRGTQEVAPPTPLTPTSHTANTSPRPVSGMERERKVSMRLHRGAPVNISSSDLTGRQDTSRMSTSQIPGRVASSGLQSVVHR
Data set [11] concerns multiple sclerosis model. Set-up: method as in PMID 23606540. As to conditions: cited from earlier work.

The values that follow come from article PMC5025054 (PLoS ONE, 2016).

What is called IC50 is the concentration at which inhibition is half-maximal.

Where two headings read alike, the source gives them in different places.

T1 sequence (P49841 whole entry): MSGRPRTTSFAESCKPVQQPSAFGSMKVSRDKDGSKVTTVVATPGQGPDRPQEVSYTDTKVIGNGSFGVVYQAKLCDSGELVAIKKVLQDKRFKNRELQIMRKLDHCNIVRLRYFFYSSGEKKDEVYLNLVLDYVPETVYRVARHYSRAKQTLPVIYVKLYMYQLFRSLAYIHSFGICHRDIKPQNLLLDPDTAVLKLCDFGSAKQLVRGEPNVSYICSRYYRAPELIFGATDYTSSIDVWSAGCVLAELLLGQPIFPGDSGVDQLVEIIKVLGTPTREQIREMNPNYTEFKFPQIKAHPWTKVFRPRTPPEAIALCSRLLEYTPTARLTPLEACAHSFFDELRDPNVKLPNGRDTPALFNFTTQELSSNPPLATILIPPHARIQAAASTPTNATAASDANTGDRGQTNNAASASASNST

As for `CC(=O)C1=C(c2cn(C)c3ccccc23)C(=O)NC1=O` [INH-38], in [1], the “Cell viability, protection from L-BMAA damage” value (from here on “Cell viability, protection”) was “protect cells from L-BMAA damage”. Also, the “Kind of GSK-3 inhibition” value in data set [2] is listed as “ATP-competitive inhibitors”.

Regarding `c1ccc(-c2n/c(=N/CCN3CCOCC3)sn2-c2ccccc2)cc1` [ITDZ 55], the “Cell viability, protection” value in [1] is reported as “protect cells from L-BMAA damage”. Besides, in [2], the “Kind of GSK-3 inhibition” value is “substrate competitive inhibitor”.

For the molecule `CNC[C@H](N)C(=O)O` [L-BMAA, β-N-methylamino-L-alanine, reference compound], in [3] (rats treated with L-BMAA only, 300 mg/kg i.p. 5 consecutive days), the “neurological evaluation score (scale 0-10)” value was 7 points. Besides, the “P-mTOR levels in lumbar spinal cord vs control animals” value in data set [4] (L-BMAA treated rats, t = 3.257, p = 0.031) is “significantly higher”. For the same molecule, the “P-mTOR levels in motor cortex vs control animals” value in [4] (L-BMAA treated rats, t = 5.889, p = 0.0042) is recorded as “significantly higher”. Moreover, in data set [4] (L-BMAA treated rats, t = 5.969, p = 0.027), the “LC3-II levels in motor cortex vs control animals” value was “significantly higher”. Besides, in data set [4] (L-BMAA treated rats, t = 46.85, p = 0.0005), the “LC3-II levels in lumbar spinal cord vs control animals” value is listed as “significantly higher”. In [5], the “Effect on weight progression / physical development” value was “do not affect physical development”.

As to `CN1C(C(=O)Nc2ccccn2)=C(O)c2ccccc2S1(=O)=O` [Piroxicam, reference compound], in data set [6] (PAMPA-BBB), the Pe is reported as 1.7 ± 0.3 10^-6 cm s^-1.

Regarding `CN(C)CCCN1c2ccccc2Sc2ccccc21` [Promazine, reference compound], the Pe in [6] (PAMPA-BBB) was 8.9 ± 1.0 10^-6 cm s^-1.

In the case of `CCCCCCCCCCCC(=O)NNC(=O)c1c(O)c2ccccc2n(CC)c1=O` [VP0.7], in data set [1], the “Cell viability, protection” value is listed as “protect cells from L-BMAA damage”. Moreover, the “Kind of GSK-3 inhibition” value in data set [2] (does not compete with ATP nor substrate) is recorded as “allosteric inhibitor”.

In the case of `COc1ccc(CNC(=O)Nc2nc(C)c(C(C)=O)s2)cc1` [VP2.51, 1-(5-Acetyl-4-methyl-1,3-thiazol-2-yl)-3-(4-methoxybenzyl)urea], the “Evolution of neurological evaluation vs L-BMAA only group” value in data set [3] (L-BMAA + VP2.51 PT1 (2.5 mg/Kg i.p. 15 days from day 1 after L-BMAA), F = 89.34, p <0.0001) is given as “markedly improved”; in data set [3] (L-BMAA + VP2.51 PT30 (2.5 mg/Kg i.p. 15 days from day 30 post-treatment)) it was “did not show significant differences”. Besides, the “neurological evaluation score (scale 0-10)” value in [3] (rats treated exclusively with VP2.51 (PT1 and PT30), 2.5 mg/Kg i.p. 15 days) is “zero”. Besides, the “Neurological pathologies or observable toxicities” value in data set [3] (rats, VP2.51 2.5 mg/Kg i.p. 15 days) is recorded as “does not promote either neurological pathologies or observable toxicities”. In data set [4] (L-BMAA+VP2.51 at PT1), the “P-mTOR level in lumbar spinal cord vs L-BMAA treated animals” value is reported as “lower non-significant”. The “LC3-II levels in motor cortex vs L-BMAA treated animals” value in [4] (L-BMAA+VP2.51 at PT1, t = 3.547, p <0.05) is on record as “significantly lower”. Also, the “LC3-II levels in lumbar spinal cord vs L-BMAA treated animals” value in data set [4] (L-BMAA+VP2.51 at PT1, t = 5.083, p <0.01) is listed as “lower”. For the same molecule, in data set [4] (L-BMAA+VP2.51 at PT1, t = 7.223, p <0.001), the “P-mTOR levels in motor cortex vs L-BMAA treated animals” value is on record as “significantly lower”. The “Inhibitory mechanism (kinetic experiments)” value in data set [7] (ATP 1 to 50 μM, GS-2 12.5 μM, ADP-Glo) was “competes in vitro with ATP”. Also, in [7] (VP2.51 at 1 and 2 μM, several times of incubation with enzyme), the “Type of enzymatic inhibition (time dependent experiments)” value was “reversible inhibition”. For the same molecule, the IC50 in [7] (human recombinant enzyme, 1 μM ATP, 30 min, 30°C, read-out: GSK-3 inhibitory activity in vitro IC50) is 0.62 ± 0.15 µM; in data set [10], 7.28 ± 0.87 µM. Also, the “Cell viability, protection” value in data set [1] is reported as “protect cells from L-BMAA damage”. Besides, in data set [8], the “Inhibition of cytochromes P450 family” value is given as “weak or partial inhibitor”. The “Effect on weight progression / physical development” value in data set [5] is given as “do not affect physical development”. Also, in [9], the Kinase selectivity profile result was “targeting only both isoforms of GSK-3, α and β, and with less potency, casein kinase-1δ (CK-1δ)”. Moreover, in data set [6] (PAMPA-BBB), the BBB prediction entry is recorded as “CNS + (CNS + when they present a permeability > 4.15 x 10^−6 cm s^-1)”. In addition, in data set [6] (PAMPA-BBB), the Pe was 7.6 ± 0.4 10^-6 cm s^-1. For the same molecule, in data set [6] (pig, pH 7.4, PAMPA, porcine brain membrane lipid, read-out: effective permeability), the Papp at 4 h worked out at 7.6 ± 0.4 ×10⁻⁶ cm/s. Moreover, the “CK-1δ IC50 relative to GSK-3 IC50” value in data set [10] (fold over GSK-3 inhibition) is “tenfold”. Moreover, the “Efficacy in multiple sclerosis model” value in [11] is on record as “effective”.
